Measurements as given in patent US20110082114A1, “Methods of Treating Aneurysmal Dilatation, Blood Vessel Wall Weakness and Specifically Abdominal Aortic and Thoracic Aneurysm Using Matrix Metalloprotease-2 Inhibitors” (SYMPHONY EVOLUTION, INC., priority 2009, published 2011).
pIC50: −log10 of the molar value.

Tests used:
[1] = tested on: C57/B16 mice, elastase-perfused abdominal aorta; assay: Elastase-perfusion mouse model of AAA, aortic diameter; format: in vivo; details: for mean % ΔAD (increase in aortic diameter at 2 weeks): daily gavage in Cremophor, Mean±SE
Text: All mice used in the experiment were commercially obtained C57/B16 inbred strain mice. Throughout the experimental course, mice were allowed free access to food and water. Animals were housed in a controlled animal facility, and all mouse care and treatment occurred under approved protocols.
A total of 89 C57/B16 mice were subjected to transient perfusion of the abdominal aorta according to a protocol known in the art. Briefly, after sedation and preparation, the aorta was approached through a midline laparotomy. The infrarenal aorta was dissected and the diameter was measured under physiologic blood pressure. A segment of infrarenal aorta was isolated and a 5 minute perfusion of this segment was performed through an arteriotomy at 100 mmHg with a solution containing type I porcine pancreatic elastase (PPE 0.16 U/mL). All of the experiments were performed with a single PPE preparation derived from the same commercial source and lot.
Following aortic perfusion the arteriotomy was repaired, the laparotomy was closed and the animal was allowed to completely recover before returning to its standard housing.
Following aortic perfusion, animals were placed into one of 5 treatment groups. […] Three different doses of the agent were used, 50 mg/kg/day (n=17), 125 mg/kg/day (n=17), and 250 mg/kg/day (n=18). There were two mice in each group which died following aortic perfusion, and all others were available for analysis. Control animals (n=18) were similarly treated with daily gavage of the Cremophor diluent only. Of these mice, 16 survived the two weeks following aortic perfusion and underwent final aortic measurements and harvest. […] In this group, 4 mice died prior to the two week harvest, and all others were used in the analysis of aneurysm growth.
Two weeks following elastase perfusion, the mice were again anesthetized; the laparotomy incision was reopened and the final aortic diameter was measured in vivo prior to sacrifice. The animals were humanely sacrificed, and circulating blood and the entire perfused segment of aorta was harvested for RNA extraction, protein extraction or histology.

[2] = tested on: C57/B16 mice, elastase-perfused abdominal aorta; assay: Elastase-perfusion mouse model of AAA, aortic histology; format: in vivo; details: 50, 125, 250 mg/kg/day
Experimental: The aortas from several mice from each experimental group were perfusion fixed with 10% neutral-buffered formalin, removed, and placed in additional formalin for a minimum of 24 hours prior to processing for paraffin embedding. Following paraffin embedding, aortic specimens were cut into 5 μm sections and mounted on glass slides. Each specimen was stained with hematoxylin and eosin to evaluate inflammatory cell infiltration and Accustain® Elastic Stain kit to assess the degree of elastin degradation. Photomicrographs of serial sections were obtained using an Olympus BX60 light microscope equipped with CV12 video capture camera.
Representative aortas from each group were fixed in formalin following aortic harvest and processed into paraffin blocks. During harvest only the maximally dilated segment of the aorta was taken, and serial sections of the block were made to assure that the most dilated segment of aorta was imaged. These maximally dilated segments were stained with Hematoxylin and Eosin stains as well as an elastin highlighting stain (Verhoff-Von Giesen [VVG]).

[3] = biological target: T1, mADAM-10 or hADAM-10 (UniProt O14672); assay: ADAM-10 enzyme assay (fluorogenic peptide cleavage); format: biochemical;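 note: fluorescence from cleavage of a quenched 10-residue DABCYL/EDANS peptide by 5 nM enzyme in HEPES pH 8.0 buffer, 16 hr at room temperature, compounds serially diluted 100 µM to 0.5 nM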
T1 sequence (O14672 1-748): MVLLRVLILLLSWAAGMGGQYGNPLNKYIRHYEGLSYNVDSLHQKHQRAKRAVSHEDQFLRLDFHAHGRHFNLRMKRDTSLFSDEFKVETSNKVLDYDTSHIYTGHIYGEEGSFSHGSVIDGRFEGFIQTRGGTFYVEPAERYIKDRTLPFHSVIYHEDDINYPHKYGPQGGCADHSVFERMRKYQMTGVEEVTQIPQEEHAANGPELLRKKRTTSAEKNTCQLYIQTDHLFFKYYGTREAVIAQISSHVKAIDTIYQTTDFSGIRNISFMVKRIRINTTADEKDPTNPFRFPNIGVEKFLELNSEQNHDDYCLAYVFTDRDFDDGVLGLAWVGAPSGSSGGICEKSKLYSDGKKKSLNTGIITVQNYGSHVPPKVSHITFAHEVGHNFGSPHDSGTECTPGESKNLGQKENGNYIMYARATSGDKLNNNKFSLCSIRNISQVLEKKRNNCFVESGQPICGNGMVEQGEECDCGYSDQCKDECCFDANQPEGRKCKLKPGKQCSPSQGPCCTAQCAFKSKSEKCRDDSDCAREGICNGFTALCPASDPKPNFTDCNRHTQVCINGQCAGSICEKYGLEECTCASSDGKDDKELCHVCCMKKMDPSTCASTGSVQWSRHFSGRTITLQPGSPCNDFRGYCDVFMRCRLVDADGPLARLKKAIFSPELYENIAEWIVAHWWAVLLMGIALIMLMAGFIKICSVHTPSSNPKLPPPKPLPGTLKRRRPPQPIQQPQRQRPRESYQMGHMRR
Experimental: mADAM-10 or hADAM-10 activity was measured as the ability to cleave a 10-residue peptide (DABCYL-Leu-Leu-Ala-Gln-Lys-*-Leu-Arg-Ser-Ser-Arg-EDANS). […] Enzyme was diluted to a final active concentration of 5 nM in Buffer A (50 mM HEPES 8.0, 100 mM NaCl, 1 mM CaCl2 and 0.01% NP-40). Serial dilutions for compounds were performed ranging from 100 μM to 0.5 nM using a Beckman Biomek 2000 in polypropylene plates (Greiner). […] This reaction was incubated for 16 hr at RT and fluorescence was read using identical conditions.

## C[C@H]1c2cccc(O)c2C(=O)C2=C(O)[C@]3(O)C(=O)C(C(N)=O)=C(O)[C@@H](N(C)C)[C@@H]3[C@@H](O)[C@@H]21 [doxycycline, reference compound]
[1]; doxycycline in drinking water, 100 mg/kg/day
  animals not reaching the threshold designated for aneurysms (% ΔAD greater than 100%): 13%
[1]; doxycycline in drinking water, 100 mg/kg/day, n=15, Mean±SE
  mean % ΔAD (percentage increase in aortic diameter at 2 weeks compared to baseline): 112.2±2.0%

## COCCOC(=O)N1CCN(S(=O)(=O)c2cc(F)c(Oc3ccc(Cl)cc3)c(F)c2)[C@@H](C(=O)NO)C1 [Entry 15]
[1]; 125 mg/kg/day
  mean % ΔAD (increase in aortic diameter at 2 weeks): 129.3±5.1%
[1]; 250 mg/kg/day, daily gavage
  animals which did not develop aneurysms: 12%
[1]; 250 mg/kg/day
  mean % ΔAD (increase in aortic diameter at 2 weeks): 119.2±14.1%
[1]; all doses (50, 125, 250 mg/kg/day)
  aortic diameters at harvest compared with control animals: significantly smaller than control animals
[1]; low (50 mg/kg/day) and intermediate (125 mg/kg/day) dose groups
  animals that developed maximal diameters greater than 100%: All animals
[1]; lowest dose (50 mg/kg/day)
  mean % ΔAD (increase in aortic diameter at 2 weeks): 140.4±3.2%
[2]
  degree of elastin damage and inflammatory cell inflammation versus dose: inversely correlated with the dose of the agent administered

## O=C(NO)[C@H]1CN(C(=O)N2CCOCC2)CCN1S(=O)(=O)c1ccc(Oc2ccc(Cl)cc2)c(F)c1 [Entry 6]
[3]
  pIC50: > 7.30

## O=C(NO)[C@H]1CN(C(=O)CN2CCOCC2)CCN1S(=O)(=O)c1cc(F)c(Oc2ccc(Cl)cc2)c(F)c1 [Entry 25]
[3]
  pIC50: > 7.30

## COCCOC(=O)N1CCN(S(=O)(=O)c2ccc(Oc3ccc(F)cc3)cc2)[C@@H](C(=O)NO)C1 [Entry 1]
[3]
  pIC50: > 7.30

## O=C(NO)[C@H]1CN(C(=O)c2cccnc2)CCN1S(=O)(=O)c1cc(F)c(Oc2ccc(Cl)cc2)c(F)c1 [Entry 59]
[3]
  pIC50: > 7.30

## O=C(NO)[C@H]1CN(C(=O)Cc2ccncc2)CCN1S(=O)(=O)c1cc(F)c(Oc2ccc(Cl)cc2)c(F)c1 [Entry 52]
[3]
  pIC50: > 7.30

## O=C(NO)[C@H]1CN(C(=O)OCCN2CCCCC2)CCN1S(=O)(=O)c1cc(F)c(Oc2ccc(Cl)cc2)c(F)c1 [Entry 27]
[3]
  pIC50: > 7.30
